Results on 2 molecules are retold here after ChEMBL document CHEMBL1151454, “Failures in clinical treatment of Staphylococcus aureus Infection with daptomycin are associated with alterations in surface charge, membrane phospholipid asymmetry, and drug binding” (Antimicrob Agents Chemother, 2008).

For data set [1], the system named is Staphylococcus aureus. Nature of the data set: Antibacterial activity against daptomycin-nonsusceptible Staphylococcus aureus isolate 701 bloodstream form isolated from patient with endocarditis after 18 hrs by microdilution technique. Format: functional. The conditions noted are these: Staphylococcus aureus, 701, 18 h. On the technique in general: Dilution methods test growth across graded concentrations, often in twofold steps.

For data set [2], the system named is Staphylococcus aureus. Nature of the data set: Drug binding to daptomycin-nonsusceptible Staphylococcus aureus isolate 703 bloodstream form isolated from patient with endocarditis at 32 ug after 10 mins by radial diffusion assay. Format: ADME, organism-based.
Data set [3] deals with Staphylococcus aureus. As to the kind of experiment: Antibacterial activity against daptomycin-transitional Staphylococcus aureus isolate 629 bloodstream form isolated from patient with endocarditis after 18 hrs by microdilution technique. Format: functional. The note with it: Staphylococcus aureus, 629, 18 h.
Data set [4] has as its system Staphylococcus aureus. Nature of the data set: Antibacterial activity against methicillin-susceptible Staphylococcus aureus isolate 616 bloodstream form isolated from patient with endocarditis after 18 hrs by microdilution technique. In kind it is functional. The note with it: Staphylococcus aureus, 616, 18 h.
The subject of data set [5] is Staphylococcus aureus. As to the kind of experiment: Antibacterial activity against daptomycin-nonsusceptible Staphylococcus aureus isolate 703 bloodstream form isolated from patient with endocarditis after 18 hrs by microdilution technique. In kind it is functional. The note with it: Staphylococcus aureus, 703, 18 h.
In data set [6] the test system is Staphylococcus aureus. Nature of the data set: Drug binding to daptomycin-nonsusceptible Staphylococcus aureus isolate 701 bloodstream form isolated from patient with endocarditis at 32 ug after 10 mins by radial diffusion assay. In kind it is ADME, organism-based.
For data set [7], the system named is Staphylococcus aureus. As to the kind of experiment: Drug binding to daptomycin-transitional Staphylococcus aureus isolate 629 bloodstream form isolated from patient with endocarditis at 32 ug after 10 mins by radial diffusion assay. Format: ADME, organism-based.
Data set [8] deals with Staphylococcus aureus. Nature of the data set: Drug binding to methicillin-susceptible Staphylococcus aureus isolate 616 bloodstream form isolated from patient with endocarditis at 32 ug after 10 mins by radial diffusion assay. Format: ADME, organism-based.
For data set [9], the system named is Staphylococcus aureus. As to the kind of experiment: Induction of autolysis in daptomycin-nonsusceptible Staphylococcus aureus isolate 703 bloodstream form isolated from patient 50 ug/ml within 24 hrs. Format: functional, organism-based.
Data set [10] concerns Staphylococcus aureus. As to the kind of experiment: Antibacterial activity against methicillin-susceptible Staphylococcus aureus isolate 616 bloodstream form isolated from patient with endocarditis assessed as inhibition on heterogeneous subpopulation survival rate at 0.25 and 1 ug/ml after 48 hrs. In kind it is functional, organism-based.
Data set [11] concerns Staphylococcus aureus. Nature of the data set: Antibacterial activity against daptomycin-nonsusceptible Staphylococcus aureus isolate 703 bloodstream form isolated from patient with endocarditis assessed as inhibition on heterogeneous subpopulation survival rate at 0.25 and 1 ug/ml after 48 hrs. Format: functional, organism-based.
Data set [12] concerns Staphylococcus aureus. As to the kind of experiment: Antibacterial activity against daptomycin-nonsusceptible Staphylococcus aureus isolate 701 bloodstream form isolated from patient with endocarditis assessed as inhibition on heterogeneous subpopulation survival rate at 0.25 and 1 ug/ml after 48 hrs. Format: functional, organism-based.
The subject of data set [13] is Staphylococcus aureus. As to the kind of experiment: Induction of autolysis in daptomycin-nonsusceptible Staphylococcus aureus isolate 701 bloodstream form isolated from patient 50 ug/ml within 24 hrs. In kind it is functional, organism-based.
Data set [14] deals with Staphylococcus aureus. Nature of the data set: Induction of autolysis in daptomycin-transitional Staphylococcus aureus isolate 629 bloodstream form isolated from patient 50 ug/ml within 24 hrs. Format: functional, organism-based.
Data set [15] deals with Staphylococcus aureus. Nature of the data set: Induction of autolysis in methicillin-susceptible Staphylococcus aureus isolate 616 bloodstream form isolated from patient 50 ug/ml within 24 hrs. Format: functional, organism-based.
The test system of data set [16] is Staphylococcus aureus. Nature of the data set: Induction of autolysis in daptomycin-nonsusceptible Staphylococcus aureus isolate 703 bloodstream form isolated from patient 50 ug/ml measured at 18 hrs. In kind it is functional, organism-based.
The test system of data set [17] is Staphylococcus aureus. As to the kind of experiment: Antibacterial activity against daptomycin-transitional Staphylococcus aureus isolate 629 bloodstream form isolated from patient with endocarditis assessed as inhibition on heterogeneous subpopulation survival rate at 0.25 and 1 ug/ml after 48 hrs. In kind it is functional, organism-based.

In brackets after ≈: the same amount, converted by molar mass. Activity calls are given as the source filed them. No cut-off for these calls is given here. Non-standard residues stand in square brackets, D forms with d. Residues, ends and D or L forms follow the SMILES beside them. *: point of attachment. NHCH2CH2OH = OCCN*; For = O=C*

What is called MIC is the lowest concentration found to suppress growth. Turning to `CC(C)C[C@@H](NC(=O)[C@H](C)NC(=O)CNC(=O)[C@@H](NC=O)C(C)C)C(=O)N[C@@H](C)C(=O)N[C@@H](C(=O)N[C@H](C(=O)N[C@@H](C(=O)N[C@@H](Cc1c[nH]c2ccccc12)C(=O)N[C@H](CC(C)C)C(=O)N[C@@H](Cc1c[nH]c2ccccc12)C(=O)N[C@H](CC(C)C)C(=O)N[C@@H](Cc1c[nH]c2ccccc12)C(=O)N[C@H](CC(C)C)C(=O)N[C@@H](Cc1c[nH]c2ccccc12)C(=O)NCCO)C(C)C)C(C)C)C(C)C` [GRAMICIDIN D] (For-VGA[dL]A[dV]V[dV]W[dL]W[dL]W[dL]W-NHCH2CH2OH), the MIC with Staphylococcus aureus [1], against Staphylococcus aureus [3], in the data set on Staphylococcus aureus [4] and in the data set on Staphylococcus aureus [5] was 32 µg/mL (≈ 17 µM) throughout. Also, the Drug uptake in the data set with Staphylococcus aureus [2] is 9 µg/mL; in the data set with Staphylococcus aureus [6], 11 µg/mL; with Staphylococcus aureus [7], 10 µg/mL; with Staphylococcus aureus [8] it was 12 µg/mL.
In the case of `CN[C@H](CC(C)C)C(=O)N[C@H]1C(=O)N[C@@H](CC(N)=O)C(=O)N[C@H]2C(=O)N[C@H]3C(=O)N[C@H](C(=O)N[C@H](C(=O)O)c4cc(O)cc(O)c4-c4cc3ccc4O)[C@H](O)c3ccc(c(Cl)c3)Oc3cc2cc(c3O[C@@H]2O[C@H](CO)[C@@H](O)[C@H](O)[C@H]2O[C@H]2C[C@](C)(N)[C@H](O)[C@H](C)O2)Oc2ccc(cc2Cl)[C@H]1O`, the outcome in the data set on Staphylococcus aureus [9], in the data set with Staphylococcus aureus [10], in the data set with Staphylococcus aureus [11], in the data set with Staphylococcus aureus [12], with Staphylococcus aureus [13] and with Staphylococcus aureus [14] was inactive. Moreover, the result with Staphylococcus aureus [16] and in the data set with Staphylococcus aureus [17] was inactive. Also, the result in the data set on Staphylococcus aureus [15] was Active.
